Test results reported in patent publication US20140056811A1, “NEW CELL-PENETRATING PEPTIDES AND USES THEREOF” (COMPUGEN LTD., priority 2010, published 2014).
Where two headings read alike, the source gives them in different places. Square brackets hold non-standard residues; d marks the D form. Ends that are not written are not given here. Peptide text beside a SMILES is read from it. * marks the point of attachment. 5FAM = O=C1OC2(c3ccc(O)cc3Oc3cc(O)ccc32)c2ccc(C(=O)*)cc21

Tests used:
HeLa cells = format: cell-based; conditions: for cell viability (MTT), FIG. 7: 26.6 ug/ml and 8.88 ug/ml, 16 hours, normalized by untreated cells; for dose response of cell viability (MTT), FIG. 8: average of duplicates
Experimental: In order to examine CPPs capability to deliver into the cell a cargo, the ability of the CPPs to facilitate intracellular cargo delivery of a pro apoptotic peptide—klaklakklaklak (also referred herein as (klaklak)2), was examined. (klaklak)2 is unable to efficiently penetrate cell membranes on its own, and thus using this pro-apoptotic peptide requires efficient intracellular delivery to trigger mitochondrial disruption and mitochondrial-dependent apoptosis. HeLa cells were seeded in DMEM supplemented with 10% fetal Bovine serum (FBS) in 96-well plates, 10,000 cells/well in a total volume of 200 μL 24 hours prior to their treatment with the peptide. Cells were incubated with any one of the CPPs and/or any one of the control peptides ([…]) conjugated to pro-apoptotic peptide (klaklak)2 through a short flexible linker of Gly-Gly (as described in the above peptide synthesis section for SEQ ID NOs: 24-32) for 16 hours under tissue culture conditions. Cell viability was then assessed using MTT[3-(4,5-dimethylthiazol-2-yl)-2,5-diphenyl-2H-tetrazo-liumbromide] assay (Catalog number M5655, Sigma, Israel). MTT reagent was added to cells for 4 hours, following cell lysis using DMSO and absorbance was measured at 492 nm. As positive controls (klaklak)2 conjugated to TAT or R9 were used, corresponding to SEQ ID NOs:26 and 25, respectively. As negative controls (klaklak)2 on its own (SEQ ID NO:31), (klaklak)2 conjugated to N5 ([…]) and peptides not conjugated to (klaklak)2 were used.

[1] = In vitro cytotoxicity by LDH (lactate dehydrogenase) analysis; format: cell-based; conditions: human; 5-FAM labeled peptides, 10 uM (also stated 10 ug/ml), 1 h, 37° C., HeLa cells; read-out: LDH % cytotoxicity
Experimental: In order to assess the in vitro cytotoxicity of the peptides, an LDH (lactate dehydrogenase) analysis was carried out, using LDH kit (Promega G1782), according to manufacturer instructions.
Briefly, HeLa cells from 5 ml of confluent T75 flask were seed in 96 well plate at 10×10^4 cells/mL in 0.1 ml DMEM supplied with 10% Fetal Calf Serum. After 24 hrs incubation with growth medium, wells were replaced with Serum Free growth medium for 24 hrs, and then cells were washed with OptiMEM and replaced with 0.1 ml peptide solution at 10 uM for 1 h at 37° C. 50 ul of supernatant were transferred to the new plate and detected according to Cyto Tox 96, Non Radioactive cytotoxicity assay, (LDH kit Promega G1782). Table 5 presents the results of in vitro cytotoxicity measurements by LDH for S22, S24, S36 and S40 peptides and two positive control peptides; Tat(47-57) and R9. LDH experiment was done with fluorescent labeled (5-FAM) peptides in concentration of […] and the % of cytotoxicity was measured by LDH levels.

For “KPSARMLLLKGFGKGG-klaklakklaklak (Ac-KPSARMLLLKGFGKGG[dK][dL][dA][dK][dL][dA][dK][dK][dL][dA][dK][dL][dA][dK]-NH2) [S8-klaklak, S8 conjugated to (klaklak)2 with GG linker]”, which “cell viability (MTT), FIG. 7” value (HeLa cells; HeLa cells) is on record?
Its value is “reduction in cell viability”.

For “VATIKSVSFYTRKGG-klaklakklaklak (Ac-VATIKSVSFYTRKGG[dK][dL][dA][dK][dL][dA][dK][dK][dL][dA][dK][dL][dA][dK]-NH2) [N2-klaklak, negative control peptide N2 conjugated to (klaklak)2 with GG linker, reference compound]”, which “dose response of cell viability (MTT), FIG. 8” value (“dose response of cell viability” below) (HeLa cells; 16 hr, HeLa cells) is on record?
The value was “no dose response curve—no effect”.

With `N=C(N)NCCC[C@H](NC(=O)c1ccc2c(c1)C(=O)OC21c2ccc(O)cc2Oc2cc(O)ccc21)C(=O)N[C@@H](CCCNC(=N)N)C(=O)N[C@@H](CCCNC(=N)N)C(=O)N[C@@H](Cc1c[nH]cn1)C(=O)N[C@@H](CCC(N)=O)C(=O)N[C@@H](CCCNC(=N)N)C(=O)N[C@@H](CCCCN)C(=O)N[C@@H](Cc1ccc(O)cc1)C(=O)N[C@@H](CCCNC(=N)N)C(=O)N[C@@H](CCCNC(=N)N)C(=O)N[C@@H](Cc1ccc(O)cc1)C(N)=O` [S36, RRRHQRKYRRY] (5FAM-RRRHQRKYRRY-NH2) as the compound, how does the cytotoxicity at 1 h, 10 µM [1] read?
Its cytotoxicity at 1 h, 10 µM is 3%.

For `CC(=O)N[C@@H](CCCNC(=N)N)C(=O)N[C@@H](CCCNC(=N)N)C(=O)N[C@@H](CCCNC(=N)N)C(=O)N[C@@H](Cc1c[nH]cn1)C(=O)N[C@@H](CCC(N)=O)C(=O)N[C@@H](CCCNC(=N)N)C(=O)N[C@@H](CCCCN)C(=O)N[C@@H](Cc1ccc(O)cc1)C(=O)N[C@@H](CCCNC(=N)N)C(=O)N[C@@H](CCCNC(=N)N)C(=O)N[C@@H](Cc1ccc(O)cc1)C(=O)NCC(=O)NCC(=O)N[C@H](CCCCN)C(=O)N[C@H](CC(C)C)C(=O)N[C@H](C)C(=O)N[C@H](CCCCN)C(=O)N[C@H](CC(C)C)C(=O)N[C@H](C)C(=O)N[C@H](CCCCN)C(=O)N[C@H](CCCCN)C(=O)N[C@H](CC(C)C)C(=O)N[C@H](C)C(=O)N[C@H](CCCCN)C(=O)N[C@H](CC(C)C)C(=O)N[C@H](C)C(=O)N[C@H](CCCCN)C(N)=O` [S36-klaklak, RRRHQRKYRRYGG-klaklakklaklak] (Ac-RRRHQRKYRRYGG[dK][dL][dA][dK][dL][dA][dK][dK][dL][dA][dK][dL][dA][dK]-NH2), which “cell viability (MTT), FIG. 7” value (HeLa cells; HeLa cells) is on record?
The value was “reduction in cell viability”.

What about the EC50 (HeLa cells; 16 h) of the same compound?
The EC50 was 11.2 µM.

Which cytotoxicity at 1 h, 10 µM [1] does the source give for `CC(C)C[C@H](NC(=O)[C@H](Cc1ccccc1)NC(=O)c1ccc2c(c1)C(=O)OC21c2ccc(O)cc2Oc2cc(O)ccc21)C(=O)N[C@@H](CCCNC(=N)N)C(=O)N[C@@H](CCCNC(=N)N)C(=O)N[C@@H](CCCNC(=N)N)C(=O)N[C@@H](CCCNC(=N)N)C(=O)N[C@@H](CCCNC(=N)N)C(=O)N[C@@H](Cc1ccccc1)C(=O)N[C@H](C(=O)N[C@@H](CCCNC(=N)N)C(=O)N[C@@H](CCC(N)=O)C(=O)N[C@H](C(N)=O)[C@@H](C)O)[C@@H](C)O` [S40, FLRRRRRFTRQT] (5FAM-FLRRRRRFTRQT-NH2) here?
The cytotoxicity at 1 h, 10 µM was 8%.

Which cytotoxicity at 1 h, 10 µM [1] does the source give for `N=C(N)NCCC[C@H](NC(=O)[C@H](CCCNC(=N)N)NC(=O)[C@H](CCCNC(=N)N)NC(=O)[C@H](CCCNC(=N)N)NC(=O)[C@H](CCCNC(=N)N)NC(=O)[C@H](CCCNC(=N)N)NC(=O)[C@H](CCCNC(=N)N)NC(=O)[C@H](CCCNC(=N)N)NC(=O)[C@H](CCCNC(=N)N)NC(=O)c1ccc2c(c1)C(=O)OC21c2ccc(O)cc2Oc2cc(O)ccc21)C(N)=O` [9R, RRRRRRRRR, reference compound] here?
Its cytotoxicity at 1 h, 10 µM is 2%.

Which “dose response of cell viability” value (HeLa cells; 16 hr, HeLa cells) does the source give for “RRRRRRRRRGG-klaklakklaklak (RRRRRRRRRGG[dK][dL][dA][dK][dL][dA][dK][dK][dL][dA][dK][dL][dA][dK]) [R9-klaklak, positive control R9 conjugated to (klaklak)2 with GG linker, reference compound]” here?
Its value is “effective dose response curve”.

With “YGRKKRRQRRRGG-klaklakklaklak (YGRKKRRQRRRGGKLAKLAKKLAKLAK) [TAT-klaklak, positive control TAT conjugated to (klaklak)2 with GG linker, reference compound]” as the compound, how does the “dose response of cell viability” value (HeLa cells; 16 hr, HeLa cells) read?
Its value is “effective dose response curve”.

Which “cell viability (MTT), FIG. 7” value (HeLa cells; HeLa cells) does the source give for “FLRRRRRFTRQTGG-klaklakklaklak (Ac-FLRRRRRFTRQTGG[dK][dL][dA][dK][dL][dA][dK][dK][dL][dA][dK][dL][dA][dK]-NH2) [S40-klaklak, S40 conjugated to (klaklak)2 with GG linker]” here?
Its value is “reduction in cell viability”.

For `CC(C)C[C@H](NC(=O)[C@H](CCCCN)NC(=O)[C@H](CCCCN)NC(=O)[C@H](CC(C)C)NC(=O)[C@@H](NC(=O)[C@H](CCCCN)NC(=O)[C@H](CCCCN)NC(=O)c1ccc2c(c1)C(=O)OC21c2ccc(O)cc2Oc2cc(O)ccc21)[C@@H](C)O)C(=O)N[C@@H](Cc1c[nH]c2ccccc12)C(=O)N[C@@H](CCCCN)C(=O)N[C@@H](CCCCN)C(=O)N[C@@H](CCCCN)C(=O)N[C@@H](CCCCN)C(=O)N[C@@H](CCCNC(=N)N)C(=O)N[C@@H](CCCCN)C(N)=O` [S24, KKTLKKLWKKKKRK] (5FAM-KKTLKKLWKKKKRK-NH2), which cytotoxicity at 1 h, 10 µM [1] is on record?
Its cytotoxicity at 1 h, 10 µM is 10%.

For `CC(=O)N[C@@H](CCCCN)C(=O)N[C@@H](CCCCN)C(=O)N[C@H](C(=O)N[C@@H](CC(C)C)C(=O)N[C@@H](CCCCN)C(=O)N[C@@H](CCCCN)C(=O)N[C@@H](CC(C)C)C(=O)N[C@@H](Cc1c[nH]c2ccccc12)C(=O)N[C@@H](CCCCN)C(=O)N[C@@H](CCCCN)C(=O)N[C@@H](CCCCN)C(=O)N[C@@H](CCCCN)C(=O)N[C@@H](CCCNC(=N)N)C(=O)N[C@@H](CCCCN)C(=O)NCC(=O)NCC(=O)N[C@H](CCCCN)C(=O)N[C@H](CC(C)C)C(=O)N[C@H](C)C(=O)N[C@H](CCCCN)C(=O)N[C@H](CC(C)C)C(=O)N[C@H](C)C(=O)N[C@H](CCCCN)C(=O)N[C@H](CCCCN)C(=O)N[C@H](CC(C)C)C(=O)N[C@H](C)C(=O)N[C@H](CCCCN)C(=O)N[C@H](CC(C)C)C(=O)N[C@H](C)C(=O)N[C@H](CCCCN)C(N)=O)[C@@H](C)O` [S24-klaklak, KKTLKKLWKKKKRKGG-klaklakklaklak] (Ac-KKTLKKLWKKKKRKGG[dK][dL][dA][dK][dL][dA][dK][dK][dL][dA][dK][dL][dA][dK]-NH2), which “cell viability (MTT), FIG. 7” value (HeLa cells; HeLa cells) is on record?
The value was “reduction in cell viability”.

What about the EC50 (HeLa cells; 16 hr, HeLa cells, unit only from the X axis (log uM concentration), read-out: EC50 of cell viability (MTT), FIG. 9) of the same compound?
Its EC50 is 8.45 µM.

For “klaklakklaklak (KLAKLAKKLAKLAK; D-amino acids) [(klaklak)2, pro apoptotic peptide used as cargo, reference compound]”, which “cell viability (MTT), FIG. 7” value (HeLa cells; HeLa cells) is on record?
The value was “almost no reduction in cell viability”.
